Experimental data as given in ChEMBL document CHEMBL2346567, “Selective aminopeptidase-N (CD13) inhibitors with relevance to cancer chemotherapy” (Bioorg Med Chem, 2013).
Active and inactive are the calls of the source. The rule behind the calls is not given here.

What was measured:
Caco-2 [1] = test: Antimigratory activity against human Caco2/TC7 cells after 16 hrs by wound healing assay; type: functional, cell-based
Mus musculus [2] = test: Toxicity in Swiss nude mouse assessed as adverse effects at 40 mg/kg, ip administered once every 3 days 8 times measured after 29 days; type: organism-based; set-up: dose 40 mg/kg, route intraperitoneal; settings: in vivo, 696 h
[3] = Antitumor activity against human colon cancer cells expressing low level of APN xenografted in athymic nude mouse at 30 mg/kg, ip administered once every 3 days relative to control; type: functional; settings: Cancer cell lines, 72 h, route intraperitoneal, read-out: TGI
HUVEC [4] = test: Antimigratory activity against human HUVEC cells at 0.01 uM after 16 hrs by wound healing assay; type: functional, cell-based
HUVEC [5] = test: Antiangiogenic activity against human HUVEC cells assessed as inhibition of capillary tube formation at 1 uM after 24 hrs by phase contrast microscopic analysis; type: functional, cell-based
HT-29 = test: Antitumor activity against human HT-29 cells expressing low level of APN xenografted in athymic nude mouse at 30 mg/kg, ip administered once every 3 days relative to control; type: functional; settings: HT-29, ip, 72 h, route intraperitoneal, read-out: TGI
HUVEC [6] = test: Antimigratory activity against human HUVEC cells after 16 hrs by wound healing assay; type: functional, cell-based
[7] = target: Matrix metalloproteinase-9 (Homo sapiens) (UniProt P14780); test: Inhibition of MMP9 (unknown origin) up to 50 uM
[8] = Cytotoxicity against human HUVEC cells assessed as concentration of compound causing 50% cell death after 24 hrs; type: cell-based; settings: read-out: Activity
[9] = Antimigratory activity against human Caco2/TC7 cells at 1 uM after 16 hrs by wound healing assay; type: functional, Caco-2
[10] = target: 72 kDa type IV collagenase (Homo sapiens) (UniProt P08253); test: Inhibition of MMP2 (unknown origin) up to 50 uM
Aminopeptidase N [11] = target: T1, Aminopeptidase N (Mus musculus, UniProt P97449); test: Inhibition of mouse APN using L-leucine-p-nitroanilide as substrate measured every 10 mins for 2 hrs by spectrophotometric analysis
T1 sequence (P97449 whole entry): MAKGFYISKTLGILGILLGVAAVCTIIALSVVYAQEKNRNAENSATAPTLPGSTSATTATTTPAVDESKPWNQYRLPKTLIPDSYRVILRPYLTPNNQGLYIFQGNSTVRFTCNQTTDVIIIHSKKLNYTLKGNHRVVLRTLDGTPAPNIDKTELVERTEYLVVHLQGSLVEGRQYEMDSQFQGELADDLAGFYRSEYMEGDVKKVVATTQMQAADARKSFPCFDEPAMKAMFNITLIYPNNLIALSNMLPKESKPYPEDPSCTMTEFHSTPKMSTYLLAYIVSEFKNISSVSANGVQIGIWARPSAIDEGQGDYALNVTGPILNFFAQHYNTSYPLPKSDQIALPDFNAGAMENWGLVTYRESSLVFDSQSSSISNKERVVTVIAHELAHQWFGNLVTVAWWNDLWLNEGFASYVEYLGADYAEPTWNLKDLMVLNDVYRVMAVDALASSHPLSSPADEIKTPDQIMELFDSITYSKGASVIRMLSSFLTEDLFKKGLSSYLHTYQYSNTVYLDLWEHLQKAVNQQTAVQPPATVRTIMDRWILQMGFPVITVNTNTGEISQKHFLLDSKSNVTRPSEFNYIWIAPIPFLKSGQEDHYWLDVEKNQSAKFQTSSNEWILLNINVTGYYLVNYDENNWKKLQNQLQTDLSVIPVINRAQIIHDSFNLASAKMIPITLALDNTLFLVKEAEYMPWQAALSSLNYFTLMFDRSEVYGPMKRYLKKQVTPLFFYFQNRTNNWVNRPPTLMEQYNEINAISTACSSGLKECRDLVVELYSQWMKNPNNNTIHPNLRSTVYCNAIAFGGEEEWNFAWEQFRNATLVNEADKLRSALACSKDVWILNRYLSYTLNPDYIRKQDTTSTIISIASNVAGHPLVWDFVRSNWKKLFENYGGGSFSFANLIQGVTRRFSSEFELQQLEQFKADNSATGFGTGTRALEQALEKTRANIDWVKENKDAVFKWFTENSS

A673 [12] = test: Antitumor activity against human A673 cells xenografted in athymic nude mouse assessed as tumor growth inhibition at 30 mg/kg, ip administered as single dose measured on day 26 relative to control; type: functional; settings: 624 h, route intraperitoneal, read-out: TGI
[13] = Antimigratory activity against human Caco2/TC7 cells at 0.1 uM after 16 hrs by wound healing assay; type: functional, Caco-2
[14] = target: T2, Stromelysin-3 (Homo sapiens) (UniProt P24347); test: Inhibition of MMP11 (unknown origin) up to 50 uM
T2 sequence (whole entry): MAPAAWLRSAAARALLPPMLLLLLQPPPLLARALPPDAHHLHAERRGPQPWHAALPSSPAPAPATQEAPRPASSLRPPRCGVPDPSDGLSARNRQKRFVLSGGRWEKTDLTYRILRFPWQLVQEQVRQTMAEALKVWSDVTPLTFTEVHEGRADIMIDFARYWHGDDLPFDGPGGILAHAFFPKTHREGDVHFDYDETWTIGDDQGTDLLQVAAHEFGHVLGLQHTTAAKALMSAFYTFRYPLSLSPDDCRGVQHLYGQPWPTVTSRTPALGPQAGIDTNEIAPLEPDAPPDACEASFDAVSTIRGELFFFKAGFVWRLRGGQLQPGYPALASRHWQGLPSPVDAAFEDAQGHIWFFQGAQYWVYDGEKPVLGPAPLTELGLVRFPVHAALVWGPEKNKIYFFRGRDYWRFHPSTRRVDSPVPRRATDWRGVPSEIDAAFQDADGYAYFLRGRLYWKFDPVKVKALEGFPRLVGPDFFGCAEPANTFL

[15] = Chemical stability of the compound in DMSO solution at 5 mg/ml after 20 days at 4 degC; type: physicochemical; settings: 480 h
HUVEC [16] = test: Antimigratory activity against human HUVEC cells at 0.1 to 1 uM after 16 hrs by wound healing assay; type: functional, cell-based
[17] = target: Macrophage metalloelastase (Homo sapiens) (UniProt P39900); test: Inhibition of MMP12 (unknown origin) up to 50 uM
[18] = Chemical stability of the compound in DMSO solution at 5 mg/ml after 20 days at 25 degC; type: physicochemical; settings: 480 h
[19] = Antitumor activity against human colon cancer cells expressing high level of APN xenografted in athymic nude mouse at 30 mg/kg, ip administered once every 3 days relative to control; type: functional; settings: Cancer cell lines, 72 h, route intraperitoneal, read-out: TGI
[20] = target: Collagenase 3 (Homo sapiens) (UniProt P45452); test: Inhibition of MMP13 (unknown origin) up to 50 uM
A673 [21] = test: Antiangiogenic activity against human A673 cells xenografted in athymic nude mouse assessed as reduction in microvessel density at 30 mg/kg, ip administered as single dose measured on day 26 relative to control; type: functional, organism-based; set-up: dose 30 mg/kg
HUVEC [22] = test: Antimigratory activity against human HUVEC cells assessed as inhibition of VEGF-induced migration at 1 uM after 16 hrs by Boyden chamber assay; type: functional
[23] = Chemical stability of the compound in DMSO solution at 5 mg/ml after 20 days at -20 degC; type: physicochemical; settings: 480 h
Mus musculus [24] = test: Toxicity in Swiss nude mouse assessed as transient body weight loss at 100 mg/kg, ip measured up to 2 days relative to control; type: organism-based; set-up: dose 100 mg/kg, route intraperitoneal; settings: in vivo, 48 h
A673 [25] = test: Antitumor activity against human A673 cells xenografted in athymic nude mouse assessed as tumor growth inhibition at 40 mg/kg, ip administered as single dose measured on day 26 relative to control; type: functional; settings: 624 h, route intraperitoneal, read-out: TGI
Mus musculus [26] = test: Toxicity in Swiss nude mouse assessed as convulsions at 100 mg/kg, ip administered once every 3 days 4 times measured post second-dose; type: organism-based; set-up: dose 100 mg/kg, route intraperitoneal; settings: in vivo, 72 h
HUVEC [27] = test: Antimigratory activity against human HUVEC cells assessed as inhibition of VEGF-induced migration at 0.1 uM after 16 hrs by Boyden chamber assay; type: functional
Caco-2 [28] = test: Antimigratory activity against human Caco2/TC7 cells up to 1 uM after 16 hrs by wound healing assay; type: functional, cell-based
Aminopeptidase N [29] = target: Aminopeptidase N (Homo sapiens, UniProt P15144)
Description: Inhibition of human APN using L-leucine-p-nitroanilide as substrate measured every 10 mins for 2 hrs by spectrophotometric analysis

A673 [30] = test: Antiangiogenic activity against human A673 cells xenografted in athymic nude mouse assessed as reduction in microvessel density at 40 mg/kg, ip administered as single dose measured on day 26 relative to control; type: functional, organism-based; set-up: dose 40 mg/kg
Mus musculus [31] = test: Toxicity in Swiss nude mouse assessed as catalepsy at 70 mg/kg, ip administered once every 3 days 8 times measured post second-dose; type: organism-based; set-up: dose 70 mg/kg, route intraperitoneal; settings: in vivo, 72 h
HUVEC [32] = test: Antiangiogenic activity against human HUVEC cells assessed as inhibition of capillary tube formation at 10 uM after 24 hrs by phase contrast microscopic analysis; type: functional, cell-based
HUVEC [33] = test: Antiangiogenic activity against human HUVEC cells assessed as inhibition of capillary tube formation at 300 uM after 24 hrs by phase contrast microscopic analysis; type: functional, cell-based

Sequence of Macrophage metalloelastase (Homo sapiens) (P39900 106-470 limits assumed): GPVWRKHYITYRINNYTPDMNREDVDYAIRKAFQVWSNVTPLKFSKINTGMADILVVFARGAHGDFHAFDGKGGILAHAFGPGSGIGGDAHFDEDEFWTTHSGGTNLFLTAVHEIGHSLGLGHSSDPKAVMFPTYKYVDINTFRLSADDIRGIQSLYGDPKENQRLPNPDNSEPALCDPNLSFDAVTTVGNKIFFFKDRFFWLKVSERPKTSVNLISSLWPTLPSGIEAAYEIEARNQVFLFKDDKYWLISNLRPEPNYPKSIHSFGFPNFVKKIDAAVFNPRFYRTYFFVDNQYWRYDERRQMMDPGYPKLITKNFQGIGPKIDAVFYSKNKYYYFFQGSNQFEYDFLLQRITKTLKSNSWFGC
Sequence of Matrix metalloproteinase-9 (Homo sapiens) (P14780 whole entry): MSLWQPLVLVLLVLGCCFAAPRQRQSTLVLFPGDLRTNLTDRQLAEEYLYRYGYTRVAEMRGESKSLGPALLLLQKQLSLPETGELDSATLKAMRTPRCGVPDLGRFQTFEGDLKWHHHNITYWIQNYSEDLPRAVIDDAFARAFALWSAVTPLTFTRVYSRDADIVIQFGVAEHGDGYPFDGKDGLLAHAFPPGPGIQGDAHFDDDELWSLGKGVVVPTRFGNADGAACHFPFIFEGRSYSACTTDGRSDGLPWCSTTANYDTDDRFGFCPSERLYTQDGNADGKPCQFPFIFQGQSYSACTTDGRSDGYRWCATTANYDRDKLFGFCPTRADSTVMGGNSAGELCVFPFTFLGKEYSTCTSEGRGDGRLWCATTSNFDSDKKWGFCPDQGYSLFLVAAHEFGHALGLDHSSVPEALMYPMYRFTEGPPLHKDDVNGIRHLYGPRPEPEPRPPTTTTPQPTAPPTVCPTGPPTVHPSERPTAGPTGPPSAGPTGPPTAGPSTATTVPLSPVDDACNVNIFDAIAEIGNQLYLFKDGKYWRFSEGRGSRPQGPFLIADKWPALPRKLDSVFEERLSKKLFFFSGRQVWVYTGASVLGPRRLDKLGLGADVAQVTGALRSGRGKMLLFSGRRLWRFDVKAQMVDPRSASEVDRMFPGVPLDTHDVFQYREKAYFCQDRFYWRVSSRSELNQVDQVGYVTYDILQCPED
Sequence of 72 kDa type IV collagenase (Homo sapiens) (P08253 110-660 limits assumed): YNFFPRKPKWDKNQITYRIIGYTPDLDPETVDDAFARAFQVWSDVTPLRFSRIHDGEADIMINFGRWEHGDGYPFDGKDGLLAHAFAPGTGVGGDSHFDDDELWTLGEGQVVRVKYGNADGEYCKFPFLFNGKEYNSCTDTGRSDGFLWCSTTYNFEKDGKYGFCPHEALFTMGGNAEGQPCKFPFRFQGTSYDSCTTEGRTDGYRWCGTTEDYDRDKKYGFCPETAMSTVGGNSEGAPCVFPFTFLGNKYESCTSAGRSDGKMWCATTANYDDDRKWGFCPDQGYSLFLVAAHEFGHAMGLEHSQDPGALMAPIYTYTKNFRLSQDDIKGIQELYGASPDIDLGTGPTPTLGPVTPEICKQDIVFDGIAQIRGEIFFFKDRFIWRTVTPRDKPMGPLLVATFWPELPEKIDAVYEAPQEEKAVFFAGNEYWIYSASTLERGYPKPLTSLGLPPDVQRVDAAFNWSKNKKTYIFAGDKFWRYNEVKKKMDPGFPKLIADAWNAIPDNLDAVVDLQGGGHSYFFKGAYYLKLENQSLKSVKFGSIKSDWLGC
Sequence of Aminopeptidase N (Homo sapiens, UniProt P15144) (P15144 whole entry): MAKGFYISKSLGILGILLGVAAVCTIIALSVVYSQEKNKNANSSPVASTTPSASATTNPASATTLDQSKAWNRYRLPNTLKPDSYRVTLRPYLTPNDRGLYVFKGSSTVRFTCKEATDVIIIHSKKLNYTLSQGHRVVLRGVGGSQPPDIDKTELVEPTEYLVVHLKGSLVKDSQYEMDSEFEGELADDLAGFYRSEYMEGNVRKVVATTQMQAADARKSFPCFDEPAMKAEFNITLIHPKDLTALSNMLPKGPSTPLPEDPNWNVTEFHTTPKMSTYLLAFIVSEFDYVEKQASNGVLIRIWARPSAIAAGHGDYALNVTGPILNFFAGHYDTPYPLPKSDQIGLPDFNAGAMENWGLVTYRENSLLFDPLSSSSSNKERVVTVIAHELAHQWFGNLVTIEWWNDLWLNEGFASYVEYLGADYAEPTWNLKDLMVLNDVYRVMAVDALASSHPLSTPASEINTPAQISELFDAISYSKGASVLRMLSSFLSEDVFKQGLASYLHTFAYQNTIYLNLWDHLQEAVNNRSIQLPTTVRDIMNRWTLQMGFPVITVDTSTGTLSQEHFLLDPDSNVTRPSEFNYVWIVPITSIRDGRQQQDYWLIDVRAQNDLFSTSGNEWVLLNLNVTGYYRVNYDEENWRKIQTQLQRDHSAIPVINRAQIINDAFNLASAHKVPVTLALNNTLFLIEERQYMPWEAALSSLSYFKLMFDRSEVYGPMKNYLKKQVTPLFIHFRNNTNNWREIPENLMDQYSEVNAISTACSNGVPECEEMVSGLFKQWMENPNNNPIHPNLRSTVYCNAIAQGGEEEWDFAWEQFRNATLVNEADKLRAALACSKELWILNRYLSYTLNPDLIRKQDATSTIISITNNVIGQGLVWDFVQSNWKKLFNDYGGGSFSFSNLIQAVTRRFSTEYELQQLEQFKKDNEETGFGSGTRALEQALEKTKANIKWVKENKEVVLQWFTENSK

| Structure (SMILES) | Activity (Caco-2 [1]) | Activity (Mus musculus [2]) | inhibition (HUVEC [5]) | Activity (HUVEC [6]) | inhibition [7] | CC50 at 24 h [8] | inhibition [10] | Ki (Aminopeptidase N [11]) | inhibition [14] | Stability [15] | Activity (HUVEC [16]) | inhibition [17] | Stability [18] | inhibition [20] | Stability [23] | Ki (Aminopeptidase N [29]) | further results |
| --- | --- | --- | --- | --- | --- | --- | --- | --- | --- | --- | --- | --- | --- | --- | --- | --- | --- |
| NC1CCc2c(Br)ccc(-c3ccccc3)c2CC1=O (stereo unspecified) | Dose-dependent effect | Non-toxic | Active | Dose-dependent effect | inactive | 10 µM | inactive | 0.2 nM | inactive | Stable | Active | inactive | Stable | inactive | Stable |  | inhibition in vivo at 30 mg/kg [3]: 8%; Activity (HUVEC [4]): Active; inhibition in vivo at 30 mg/kg (HT-29): 15%; Activity [9]: 40%; inhibition in vivo at 30 mg/kg (A673 [12]): 44%; Activity [13]: 30%; inhibition in vivo at 30 mg/kg [19]: 26%; Activity (A673 [21]): Active; inhibition at 1 µM (HUVEC [22]): 70% |
| Cl.NC1CCc2cccc(-c3ccccc3)c2CC1=O (stereo unspecified) | Dose-dependent effect | Non-toxic | Active | Dose-dependent effect | inactive | 20 µM | inactive | 10 nM | inactive | Stable | Active | inactive | Stable | inactive | Stable | 11 nM | Activity (Mus musculus [24]): Toxic; inhibition in vivo at 40 mg/kg (A673 [25]): 18%; Activity (Mus musculus [26]): Toxic; inhibition at 0.1 µM (HUVEC [27]): 70%; Activity (Caco-2 [28]): inactive; Activity (A673 [30]): inactive; Activity (Mus musculus [31]): Toxic |
| NC1CCc2ccccc2CC1=O (stereo unspecified) |  |  |  |  | inactive | 100 µM | inactive |  | inactive |  |  | inactive |  | inactive |  | 2000 nM | inhibition (HUVEC [32]): Active |
| CC(C)C[C@H](NC(=O)[C@@H](O)[C@H](N)Cc1ccccc1)C(=O)O |  |  |  |  |  |  |  |  |  |  |  |  |  |  |  |  | inhibition (HUVEC [33]): Active |
